PMC10877564, “Activity of Gut-Derived Nisin-like Lantibiotics against Human Gut Pathogens and Commensals” (ACS Chemical Biology, 2024)
Positions of bridges follow the written chain, without caps; N, C: chain ends. Non-standard residues stand in square brackets, D forms with d. No end group written: not given here. Abu = CC[C@H](N)C(=O)O; Dhb = C/C=C(\N)C(=O)O; Dha = C=C(N)C(=O)O

Key:
[1] = system: C. comes MSK.11.23; test: MIC assay, anaerobic broth dilution; format: cell-based, Coprococcus comes
Text: (§1) Antibiotic treatment may result in collateral damage to commensal bacteria in the human microbiome, leading to dysbiosis and susceptibility to various diseases.[44] How lantibiotics impact Gram-positive commensals from the human gut has remained unclear. Therefore, we performed antimicrobial activity tests of these lantibiotics against selected Gram-positive human gut commensals, most of which belong to the Lachnospiraceae family, one of the most abundant bacterial families in the human gut.[27] In general, human gut commensals were more susceptible to the set of investigated lantibiotics compared to pathogens (Figure 3). […]
(§2) Isolation of human gut commensal bacteria
Isolation and growth of commensal bacteria was done as previously reported.5 Briefly, fresh donor fecal samples were transferred into an anaerobic chamber (Coy Labs) within 1 h of collection. The anaerobic chamber was maintained using a gas mix consisting of 5% hydrogen, 5% carbon dioxide and 90% nitrogen, and hydrogen was maintained at ~3.0% using an anaerobic gas infuser. Fecal samples were resuspended in pre-reduced PBS and plated on Columbia blood agar or brain-heart infusion (BHI – Difco, BD) agar plates in three serial 10-fold dilutions and incubated at 37 °C for 48 – 96 h. Isolated colonies were re-streaked for purity onto Columbia blood agar and frozen in pre-reduced 10% glycerol in PBS.
(§3) For broth cultures, isolates were grown in pre-reduced BHI supplemented with 5 g/L yeast extract (Difco, BD) and 0.1% L-cysteine under anaerobic condition.
(§4) Minimal Inhibition Concentration (MIC) assay
(§5) All MIC assays were performed under anaerobic condition. Stationary bacterial culture in BHIS (BHI supplemented with 5 g/L yeast extract and 0.1% L-cysteine) were inoculated 1:100 to wells containing 200 µL BHIS in U-bottom 96-well plates. Lantibiotics were dissolved in DPBS, and concentrations were determined by BCA assay (Pierce) according to the manufacturer’s protocol.
Lantibiotic stock solutions were added to wells to reach desired final concentration, with 3-fold serial dilution across rows to create concentration gradients. Bacteria-inoculated wells without lantibiotics served as control. Plates were incubated at 37 °C for 48 h before being taken out of the anaerobic chamber for centrifugation. Plates were imaged with an iBright 1500 imager […]
pellets than those without lantibiotics were identified as MIC.

[2] = system: D. formicigenerans MSK.17.61; test: MIC assay, anaerobic broth dilution; format: cell-based, Dorea formicigenerans; conditions: BHIS, 37 °C, 48 h, 3-fold serial dilution
Text: (§6) Antibiotic treatment may result in collateral damage to commensal bacteria in the human microbiome, leading to dysbiosis and susceptibility to various diseases.[44] How lantibiotics impact Gram-positive commensals from the human gut has remained unclear. Therefore, we performed antimicrobial activity tests of these lantibiotics against selected Gram-positive human gut commensals, most of which belong to the Lachnospiraceae family, one of the most abundant bacterial families in the human gut.[27] In general, human gut commensals were more susceptible to the set of investigated lantibiotics compared to pathogens (Figure 3).
(§7) Elution Buffer (4 M guanidine hydrochloride, 20 mM Tris HCl, pH 7.5 at 25 °C, 100 mM NaCl, 1 M imidazole). Peptides eluted from the Ni resin were concentrated and desalted using 3 kDa Amicon filters (Millipore). For leader peptide removal, the peptide (1:20 trypsin to peptide) was incubated with the trypsin protease in 50 mM Tris-HCl, pH 8 overnight at 37 °C. Lastly, the core peptides were further purified with HPLC using an Agilent 1200 instrument (Agilent) as specified in general methods. About 1.5 mg recombinant peptide was obtained after HPLC purification per […]
(§8) All MIC assays were performed under anaerobic condition. […] Lantibiotics were dissolved in DPBS, and concentrations were determined by BCA assay (Pierce) according to the manufacturer’s protocol. […]

[3] = system: S. aureus USA300 (MRSA); test: MIC assay, anaerobic broth dilution; format: cell-based, Staphylococcus aureus; conditions: BHIS, 37 °C, 48 h, 3-fold serial dilution
Text: (§9) Next, we set out to test the antimicrobial activities of these purified lantibiotics against a panel of Gram-positive bacteria that are representatives of some of the most prevalent human pathogens: VRE, Methicillin-resistant S. aureus USA300 (MRSA), Methicillin-resistant Staphylococcus epidermidis SK135 (MRSE), Listeria monocytogenes 10403S, and Clostridioides difficile VPI10463. We examined the growth of bacteria in a 96-well plate under a concentration gradient of lantibiotics under anaerobic conditions (Figure S2B).
as §7, with “specified” for “specified in general methods. About 1.5 mg recombinant peptide was obtained after HPLC purification per”
(§10) in general methods. […]
(§11) For broth cultures, isolates were grown in pre-reduced BHI supplemented with 5 g/L yeast extract (Difco, BD) and 0.1% L-cysteine under anaerobic condition. […]
as §8

[4] = system: C. difficile VPI10463; test: MIC assay, anaerobic broth dilution; format: cell-based, Clostridioides difficile; conditions: BHIS, 37 °C, 48 h, 3-fold serial dilution
Text: as §9
as §7, with “specified” for “specified in general methods. About 1.5 mg recombinant peptide was obtained after HPLC purification per”
as §10, §11, §8

[5] = system: E. ramosum MSK.23.96; test: MIC assay, anaerobic broth dilution; format: cell-based, Erysipeloclostridium ramosum; conditions: BHIS, 37 °C, 48 h, 3-fold serial dilution
Text: as §6, §7, §8

[6] = system: L. monocytogenes 10403s; test: MIC assay, anaerobic broth dilution; format: cell-based, Listeria monocytogenes; conditions: BHIS, 37 °C, 48 h, 3-fold serial dilution
Text: as §9, with “S2B). […]” for “S2B).”
as §3, §4, §5
Lantibiotic stock solutions were added to wells to reach desired final concentration, with 3-fold serial dilution across rows to create concentration gradients. Bacteria-inoculated wells without lantibiotics served as control. […]

[7] = system: A. hadrus MSK.14.23; test: MIC assay, anaerobic broth dilution; format: cell-based, Anaerostipes hadrus; conditions: BHIS, 37 °C, 48 h, 3-fold serial dilution
Text: as §1, §2
Isolation and growth of commensal bacteria was done as previously reported.5 Briefly, fresh donor fecal samples were transferred into an anaerobic chamber (Coy Labs) within 1 h of collection. The anaerobic chamber was maintained using a gas mix consisting of 5% hydrogen, 5% carbon dioxide and 90% nitrogen, and hydrogen was maintained at ~3.0% using an anaerobic gas infuser. […]
as §8

[8] = system: selected Gram-positive human gut commensals; test: MIC assay against the panel of Gram-positive human gut commensals; format: cell-based; conditions: commensal panel, Figure 3F-M; anaerobic
Text: as §6, §7, §8

## nisin A (I[Dhb]AI[Dha]LC[Abu]PGCK[Abu]GALMGCNMK[Abu]A[Abu]CHCSIHV[Dha]K; thioether 8-11, 13-19, 23-26, 25-28, 3-7; UniProt P13068 24-57, looked up) [prototypical class I lantibiotic produced by L. lactis, food preservative; commercial nisin A]
[1]; C. comes MSK.11.23, anaerobic, BHIS, 37 °C, 48 h, 3-fold serial dilution
  nisin A MIC: 0.296 µM
[1]; Figure 3, anaerobic MIC assay
  sensitivity of C. comes MSK.11.23 to the lantibiotic (in words): relatively resistant
[2]
  nisin A MIC: 0.0110 µM
[3]
  nisin A MIC: 2.67 µM
[4]
  nisin A MIC: 2.67 µM
[5]
  nisin A MIC: 0.889 µM
[6]
  nisin A MIC: 2.67 µM
[7]
  nisin A MIC: 0.0110 µM
[8]
  antimicrobial activity against human gut commensals (ranking in words): generally more effective in growth inhibition
